Laboratory results published in US11976280B2, “SMAC/Diablo inhibitors useful for treating cancer” (THE NATIONAL INSTITUTE FOR BIOTECHNOLOGY IN THE NEGEV LTD., priority 2017, dated 2024).
d = 2'-deoxy (DNA); r = 2'-OH (RNA)

Tested on: A549 cells-derived tumors
Test: Next-generation sequencing (NGS) of si-NT- and si-hSMAC-A-treated tumors
Type: in vivo, human
Protocol: Libraries were prepared by the INCPM-RNA-seq unit (Weizmann Institute, Israel). Briefly, polyA fraction (mRNA) was purified from 500 ng of total RNA, isolated as above, followed by fragmentation and generation of double stranded cDNA. End repair, a base addition, adapter ligation and PCR amplification steps were performed according to established methods. Libraries were evaluated by Qubit and TapeStation. Sequencing libraries were constructed with barcodes to allow multiplexing of 20 samples in one lane. Between 22 and 26 million reads single-end 60-bp reads were sequenced per sample on Illumina HiSeq 2500 V4 instrument.
Bioinformatics analyses were carried out at the Bioinformatics Core Facility at the National Institute for Biotechnology in the Negev, Ben-Gurion University. Raw sequence reads were assessed for quality using FASTQC and further trimmed for removal of remaining adaptors and low quality bases using Trimmomatic. The trimmed reads from each sample were separately aligned to the human and mouse genomes (GRCh38 and GRCm38.75, respectively) using STAR v2.3.0 with default settings. An average of 23.7±0.8 million reads per sample was obtained. Of these, an average of 13, 2.6, 7.8 and 0.3 million reads were mapped to human only, mouse only, both human and mouse, and none of them, respectively. After rejection of multi-mapped reads, a total of 11.5±2.5 human-specific, uniquely mapped reads, and 2.3±1.7 mouse-specific, uniquely mapped reads were subjected for further analysis. The number of aligned reads per gene per sample were counted using HTSeq count with “intersection-nonempty” (to handle reads that overlap with more than one gene) and “no stranded” as parameters. The other parameters were set to their default. Normalization and statistical analysis for differential expression were carried out using DESeq2 v1.6.3. Fold change values were converted to linear scale, with a minus sign indicating down-regulation.
Differentially expressed genes were defined as those having a p-value<0.05, and linear fold change>1.5 and <−1.5. Functional analysis was performed using the Gene Ontology system, DAVID and Expander software tools.
NGS was used to investigate changes in patterns of gene expression in si-NT-TTs and si-hSMAC-A-TTs (FIG. 10, and Tables 3-5). […] As si-hSMAC is human-specific, any effect on mouse gene expression must be mediated by the human tumor cells.
The major functional groups were changes were seen are presented below.

[1] = vs si-NT-TTs, EXTRACELLULAR MATRIX
[2] = vs si-NT-TTs, EXTRACELLULAR SPACE
[3] = vs si-NT-TTs, METABOLISM RELATED ENZYMES
[4] = vs si-NT-TTs, METABOLISM RELATED ENZYMES, listed as si-SMAC
[5] = vs si-NT-TTs, REDOX STATE REGULATION

Substance: si-hSMAC-A: siRNA to human SMAC/Diablo; sense 5′AAGCGGUGUUUCUCAGAAUUGtt3′ (SEQ ID NO:20), antisense 5′AACAAUUCUGAGAAACCCGCtt3′ (SEQ ID NO:21) (sense AAGCGGUGUUUCUCAGAAUUGTT; antisense AACAAUUCUGAGAAACCCGCTT; sense: sugars from the 5' end r21 d2, backbone not given here; antisense: sugars from the 5' end r20 d2, backbone not given here)
- Fold change FBN1 [1]: −1.7 fold
- Fold change GPC6 [1]: −1.8 fold
- Fold change MMP2 [1]: −2.9 fold
- Fold change NLGN2 [1]: −1.8 fold
- Fold change SMOC1 [1]: −1.6 fold
- Fold change TGFBI [1]: −1.9 fold
- Fold change VCAN [1]: −1.5 fold
- Fold change VTN [1]: −1.6 fold
- Fold change CCL24 [2]: 1.9 fold
- Fold change CCL28 [2]: 1.9 fold
- Fold change CPM [2]: −1.7 fold
- Fold change CX3CL1 [2]: 1.6 fold
- Fold change IGFBP1 [2]: −1.6 fold
- Fold change IGFBP3 [2]: −1.8 fold
- Fold change LGALS3 [2]: 1.6 fold
- Fold change MST1 [2]: −1.6 fold
- Fold change PROC [2]: 1.8 fold
- Fold change SPINK1 [2]: 1.9 fold
- Fold change SPINT1 [2]: 1.7 fold
- Fold change WISP2 [2]: −1.7 fold
- Fold change ACSLA (acyl-CoA synthetase long-chain family member 4) [3]: −1.6 fold
- Fold change ADARB1 [3]: −2.1 fold
- Fold change ADH4 [3]: −2.6 fold
- Fold change ADI1 [3]: 1.8 fold
- Fold change AGPAT2 [3]: 1.6 fold
- Fold change B3GNT6 [3]: 2.1 fold
- Fold change BLVRA [3]: 1.7 fold
- Fold change CAD [3]: −1.6 fold
- Fold change CDA [3]: 2.0 fold
- Fold change CMAS [3]: 1.5 fold
- Fold change DGAT2 [3]: 4.9 fold
- Fold change DGKD [3]: −1.5 fold
- Fold change DHRS9 [3]: 2.8 fold
- Fold change ELOVL3 [3]: 7.4 fold
- Fold change ELOVL4 [3]: 145.2 fold
- Fold change ENTPD8 [3]: 2.7 fold
- Fold change FAR2 [3]: 4.1 fold
- Fold change FASN [3]: −1.5 fold
- Fold change FAXDC2 [3]: 2.1 fold
- Fold change FUT3 [3]: 2.7 fold
- Fold change FUT6 [3]: 1.8 fold
- Fold change GALNT5 [3]: 1.6 fold
- Fold change GALNT6 [3]: 1.9 fold
- Fold change GALNT12 [3]: 1.6 fold
- Fold change GCNT3 [3]: 1.7 fold
- Fold change GPT2 [3]: 1.5 fold
- Fold change LIPH [3]: 1.9 fold
- Fold change MGAT4B [3]: 1.5 fold
- Fold change ORMDL2 [3]: 1.5 fold
- Fold change PADI1 [3]: 3.8 fold
- Fold change PCK1 [3]: −6.9 fold
- Fold change PLCB4 [3]: 1.7 fold
- Fold change SDR16C5 [3]: 3.0 fold
- Fold change ST3GAL4 [3]: 1.5 fold
- Fold change ST6GALNAC1 [3]: 1.6 fold
- Fold change STARD10 [3]: 3.7 fold
- Fold change ELOVL3 [4]: 7 fold
- Fold change ELOVL4 [4]: 145 fold
- Fold change ANXA10 (vs si-NT-TTs, Mitochondria): −1.7 fold
- Fold change BIK (vs si-NT-TTs, Mitochondria): 2.1 fold
- Fold change C10orf2 (TWINK) (vs si-NT-TTs, Mitochondria): −1.9 fold
- Fold change CHCHD7 (vs si-NT-TTs, Mitochondria): 1.6 fold
- Fold change CPS1 (vs si-NT-TTs, Mitochondria): −4.8 fold
- Fold change CYP24A1 (vs si-NT-TTs, Mitochondria): −1.9 fold
- Fold change ENDOG (vs si-NT-TTs, Mitochondria): 1.8 fold
- Fold change MT-ND4L (vs si-NT-TTs, Mitochondria): −1.9 fold
- Fold change MT-ND5 (vs si-NT-TTs, Mitochondria): −1.6 fold
- Fold change MYO19 (vs si-NT-TTs, Mitochondria): −1.6 fold
- Fold change STARD13 (vs si-NT-TTs, Mitochondria): −2.2 fold
- Fold change GSTP1 [5]: −1.6 fold
- Fold change NOS1 [5]: −5.9 fold
- Fold change PXDN [5]: 3.3 fold
- Fold change SOD2 [5]: −1.9 fold
- Fold change TXN [5]: 2.1 fold
- Fold change ANO1 (vs si-NT-TTs, TRANSPORTERS): 3.4 fold
- Fold change ATP10B (vs si-NT-TTs, TRANSPORTERS): 25.5 fold
- Fold change CRACR2A (vs si-NT-TTs, TRANSPORTERS): 3.2 fold
- Fold change GLTP (vs si-NT-TTs, TRANSPORTERS): 1.8 fold
- Fold change KCNK1 (vs si-NT-TTs, TRANSPORTERS): 1.7 fold
- Fold change KCNN4 (vs si-NT-TTs, TRANSPORTERS): 1.8 fold
- Fold change SCNN1A (vs si-NT-TTs, TRANSPORTERS): 1.9 fold
- Fold change SLC4A4 (vs si-NT-TTs, TRANSPORTERS): −3.3 fold
- Fold change SLC6A9 (vs si-NT-TTs, TRANSPORTERS): −1.7 fold
- Fold change SLC24A1 (vs si-NT-TTs, TRANSPORTERS): −1.6 fold
- Fold change SLC25A37 (vs si-NT-TTs, TRANSPORTERS): −1.5 fold
- Fold change SLC44A4 (vs si-NT-TTs, TRANSPORTERS): 2.2 fold
- Fold change SLC45A3 (vs si-NT-TTs, TRANSPORTERS): 1.8 fold
- Fold change SLCO2B1 (vs si-NT-TTs, TRANSPORTERS): −2.8 fold
- Fold change TMC4 (vs si-NT-TTs, TRANSPORTERS): 6.3 fold
- Fold change TMC8 (vs si-NT-TTs, TRANSPORTERS): 2.4 fold
- Fold change ATP10B (vs si-NT-TTs, TRANSPORTERS, listed as si-SMAC): 25 fold
- number of genes with significant changes (≥1.5-fold change, adjusted P value<0.05, human and murine): 848
